# Measurements published in US20240262795A1, “PYRAZINE COMPOUNDS AS INHIBITORS OF FLT3” (Biomea Fusion, Inc., priority 2021, published 2024).
# Tests used:
# MOLM-13 = experiment: Proliferation inhibition, CellTiter-Glo, MOLM-13; type: cell-based, human; conditions: Homo sapiens, 96 h; MOLM-13 cells, IC50 (4 days), CellTiter-Glo; read-out: MOLM-13 IC50
# How it was run: (§1)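 About 10,000 cells per well in RPMI-1640 with 10% FBS. Compounds added 2 h after seeding at eight concentrations in duplicate (0.2% DMSO as 100% proliferation), then incubated ~96 h at 37° C, 5% CO2. ATP measured by CellTiter-Glo luminescence; IC50 from four-parameter logistic fit.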
# MV-4-11 = experiment: Proliferation inhibition, CellTiter-Glo, MV-4-11; type: cell-based, human; conditions: Homo sapiens, MV4-11, 96 h; MV-4:11 cells, IC50 (4 days), CellTiter-Glo; read-out: MV-4:11 IC50
# How it was run: as §1
# K-562 = experiment: Proliferation inhibition, CellTiter-Glo, K-562; type: cell-based, human; conditions: Homo sapiens, K562, 96 h; K-562 cells, IC50 (4 days), CellTiter-Glo; read-out: K-562 IC50
# How it was run: as §1
# WT FLT3 = biological target: T1, WT FLT3 (Homo sapiens, UniProt P36888); experiment: WT FLT3 Lance Ultra TR-FRET kinase assay; type: biochemical
# T1 construct: purchased Invitrogen PR4666C
# T1 sequence (P36888 564-993 limits assumed): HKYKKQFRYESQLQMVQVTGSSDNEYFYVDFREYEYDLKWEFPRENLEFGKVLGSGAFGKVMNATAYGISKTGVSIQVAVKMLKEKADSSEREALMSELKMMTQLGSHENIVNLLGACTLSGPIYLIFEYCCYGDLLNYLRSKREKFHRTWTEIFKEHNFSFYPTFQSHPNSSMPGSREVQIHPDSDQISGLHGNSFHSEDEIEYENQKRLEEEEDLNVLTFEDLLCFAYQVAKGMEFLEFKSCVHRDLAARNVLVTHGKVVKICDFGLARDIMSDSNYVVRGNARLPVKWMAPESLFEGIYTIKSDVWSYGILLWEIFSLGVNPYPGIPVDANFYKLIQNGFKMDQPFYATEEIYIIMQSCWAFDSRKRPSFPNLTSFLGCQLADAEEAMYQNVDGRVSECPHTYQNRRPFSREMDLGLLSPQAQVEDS
# Source text: (§2) High throughput 384-well Lance Ultra TR-FRET based kinase assays were established for the WT FLT3 and FLT3-ITD enzymes and employed a ULight-labeled peptide […] and FLT3 proteins labelled with Eu-conjugated antibody […] (WuXi Aptec). The principle of TR-FRET is based on transfer of energy between a donor and acceptor fluorophore that results when the fluorophores are within close proximity (˜100 Å) of each other. Recombinant WT FLT3 (#PR4666C, M.W. 48.6 kDa) was purchased from Invitrogen and FLT3-ITD (FLT3-ITD-W51, #F-12-12CG-10, M.W. 76 kDa) was purchased from Signalchem. Optimal assay conditions for the WT FLT3 enzyme assay were as follows: 0.5 nM FLT3 protein, 50 nM ULight-JAK-1 (Tyr1023) substrate peptide (PerkinElmer #TRF0121), 100 μM ATP, 60 min reaction time. Optimal assay conditions for the FLT3-ITD enzyme assay were as follows: 0.0625 nM FLT3-ITD protein, 50 nM ULight-JAK-1 (Tyr1023) substrate peptide, 50 μM ATP, 90 min reaction time. Briefly, 11 dose 3× serial dilutions were prepared for the test compounds and the reference compound and 100 nanoliters transferred to appropriate wells of 384-well assay plates. Five microliters of 2× enzyme/peptide were added into assay wells, assay plates centrifuged at 1000 rpm for about 30 seconds, sealed with sealing film and incubated for 30 min at 23° C. Assay buffer comprised 50 mM HEPES (pH 7.5), 1 mM EDTA, 0.01% Brij-35, 10 mM MgCl2 and 2 mM DTT. Next 5 μl of a 2× ATP mixture were added into the assay wells and the plates centrifuged at 1000 rpm about 30 seconds, sealed with sealing film and incubated for 23° C. for appropriate duration. Following assay incubation (30 min for WT FLT3 and 60 min for FLT3-ITD) 10 μl 2× Detection Mixture (Eu-W1024 Anti-phosphotyrosine (PT66) 2 nM and EDTA 10 mM) was added to assay wells, assay plates centrifuge at 1000 rpm about 1 minutes, sealed with sealing film and incubated at 23° C. for 60 minutes. Assay plates were read on a Perkin Elmer Envision reader at two wavelengths (665/615) and the ratio of […] calculated.
# (§3) Data was expressed as % of inhibition relative to the vehicle control and calculated as follows:
# (§4) Results were analyzed by XLFIT5 as % inhibition vs. log [compound concentration] and IC50 values were calculated by non-linear regression using four parameter-logistic equation. Fit=(A+((B−A)/(1+((C/x)^D)))). Res=(y−fit).
# FLT3-ITD = biological target: T2, FLT3-ITD (Homo sapiens, UniProt P36888, DUP595-601); experiment: FLT3-ITD Lance Ultra TR-FRET kinase assay; type: biochemical
# T2 construct: purchased Signalchem F-12-12CG-10
# T2 sequence (P36888 with tags, fused parts or gaps DUP595-601 limits assumed): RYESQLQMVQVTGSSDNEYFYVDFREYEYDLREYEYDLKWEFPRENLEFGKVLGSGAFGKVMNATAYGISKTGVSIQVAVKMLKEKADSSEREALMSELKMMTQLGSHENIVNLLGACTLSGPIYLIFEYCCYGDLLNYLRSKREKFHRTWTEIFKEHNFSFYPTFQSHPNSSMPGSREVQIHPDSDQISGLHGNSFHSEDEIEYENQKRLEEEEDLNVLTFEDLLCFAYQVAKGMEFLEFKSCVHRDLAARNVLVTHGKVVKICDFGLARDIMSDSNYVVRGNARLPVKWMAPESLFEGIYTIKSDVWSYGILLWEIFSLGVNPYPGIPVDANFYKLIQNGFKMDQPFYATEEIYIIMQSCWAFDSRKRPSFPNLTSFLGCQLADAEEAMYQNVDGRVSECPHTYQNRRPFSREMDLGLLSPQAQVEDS
# Source text: as §2, §3, §4
IC50 (MOLM-13),IC50 (MV-4-11),IC50 (K-562),IC50 (WT FLT3),IC50 (FLT3-ITD),Structure (SMILES)
< 1 nM,< 1 nM,> 500 nM,0.501 to 1 nM,0.101 to 0.2 nM,"CCc1nc(C(N)=O)c(Nc2cccc(CCNC(=O)[C@H](C)N(C)C(=O)/C=C/CN(C)C)c2)nc1N(C)CC [Compound 221, (S,E)-3-((3-(2-(2-(4-(dimethylamino)-N-methylbut-2-enamido)propanamido)ethyl)phenyl)amino)-6-ethyl-5-(ethyl(methyl)amino)pyrazine-2-carboxamide]"
10 to 100 nM,1 to 10 nM,> 500 nM,0.501 to 1 nM,0.101 to 0.2 nM,"Cc1nc(C(N)=O)c(Nc2cc(F)cc(CCNC(=O)[C@H](C)N(C)C(=O)/C=C/CN(C)C)c2)nc1N(C)C [Compound 239, 5-(dimethylamino)-3-[3-[2-[[(2S)-2-[[(E)-4-(dimethylamino)but-2-enoyl]-methyl-amino]propanoyl]amino]ethyl]-5-fluoro-anilino]-6-methyl-pyrazine-2-carboxamide]"
1 to 10 nM,1 to 10 nM,> 500 nM,> 1 nM,0.201 to 0.5 nM,"Cc1nc(C(N)=O)c(Nc2cccc(CCNC(=O)CN(C)C(=O)/C=C/CN(C)C)c2)nc1C1CC1 [Compound 241, (E)-5-cyclopropyl-3-((3-(2-(2-(4-(dimethylamino)-N-methylbut-2-enamido)acetamido)ethyl)phenyl)amino)-6-methylpyrazine-2-carboxamide]"
1 to 10 nM,< 1 nM,> 500 nM,0.501 to 1 nM,0.201 to 0.5 nM,"CCN(C)c1nc(Nc2cccc(CCNC(=O)[C@H](C)N(C)C(=O)/C=C/CN(C)C)c2)c(C(N)=O)nc1C [Compound 253, (S,E)-3-((3-(2-(2-(4-(dimethylamino)-N-methylbut-2-enamido)propanamido)ethyl)phenyl)amino)-5-(ethyl(methyl)amino)-6-methylpyrazine-2-carboxamide]"
1 to 10 nM,< 1 nM,> 500 nM,0.501 to 1 nM,0.501 to 1 nM,"Cc1nc(C(N)=O)c(Nc2cc(F)cc(CCNC(=O)[C@H](C)N(C)C(=O)/C=C/CN(C)C)c2)nc1C1CC1 [Compound 254, (S,E)-5-cyclopropyl-3-((3-(2-(2-(4-(dimethylamino)-N-methylbut-2-enamido)propanamido)ethyl)-5-fluorophenyl)amino)-6-methylpyrazine-2-carboxamide]"
1 to 10 nM,< 1 nM,> 500 nM,> 1 nM,> 1 nM,"CCc1nc(C(N)=O)c(Nc2cccc(CCNC(=O)[C@@H](C)N(C)C(=O)/C=C/CN(C)C)c2)nc1N(C)C(C)C [Compound 302, (R,E)-3-((3-(2-(2-(4-(dimethylamino)-N-methylbut-2-enamido)propanamido)ethyl)phenyl)amino)-6-ethyl-5-(isopropyl (methyl)amino) pyrazine-2-carboxamide]"
< 1 nM,< 1 nM,> 500 nM,0.201 to 0.5 nM,0.201 to 0.5 nM,"CCc1nc(C(N)=O)c(Nc2cccc(CCNC(=O)[C@H](C)N(C)C(=O)/C=C/CNC)c2)nc1NC(C)C [Compound 303, (S, E)-6-ethyl-5-(isopropylamino)-3-((3-(2-(2-(N-methyl-4-(methylamino)but-2-enamido)propanamido)ethyl)phenyl)amino) pyrazine-2-carboxamide]"
1 to 10 nM,1 to 10 nM,> 500 nM,> 1 nM,> 1 nM,"Cc1nc(C(N)=O)c(Nc2cccc(CCNC(=O)[C@H](C)N(C)C(=O)/C=C/CN(C)C)c2)nc1C(C)C [Compound 305, (S,E)-3-((3-(2-(2-(4-(dimethylamino)-N-methylbut-2-enamido)propanamido)ethyl)phenyl)amino)-5-isopropyl-6-methylpyrazine-2-carboxamide]"
1 to 10 nM,1 to 10 nM,> 500 nM,0.201 to 0.5 nM,0.101 to 0.2 nM,"C=CC(=O)N(C)CC(=O)NCCc1cccc(Nc2nc(N(C)C(C)C)c(CC)nc2C(N)=O)c1 [Compound 308, 6-ethyl-5-(isopropyl(methyl)amino)-3-((3-(2-(2-(N-methylacrylamido)acetamido)ethyl)phenyl)amino)pyrazine-2-carboxamide]"
1 to 10 nM,1 to 10 nM,> 500 nM,> 1 nM,0.501 to 1 nM,"C=CC(=O)N(C)[C@@H](C)C(=O)NCCc1cccc(Nc2nc(N(C)C(C)C)c(CC)nc2C(N)=O)c1 [Compound 315, (S)-6-ethyl-5-(isopropyl(methyl)amino)-3-((3-(2-(2-(N-methylacrylamido)propanamido)ethyl)phenyl)amino)pyrazine-2-carboxamide]"
1 to 10 nM,1 to 10 nM,> 500 nM,0.501 to 1 nM,> 1 nM,"CCc1nc(C(N)=O)c(Nc2cccc([C@@H](C)CNC(=O)CN(C)C(=O)/C=C/CN(C)C)c2)nc1C [Compound 321, (R,E)-3-((3-(1-(2-(4-(dimethylamino)-N-methylbut-2-enamido)acetamido)propan-2-yl)phenyl)amino)-6-ethyl-5-methylpyrazine-2-carboxamide]"
1 to 10 nM,10 to 100 nM,> 500 nM,0.501 to 1 nM,0.201 to 0.5 nM,"C#Cc1nc(C(N)=O)c(Nc2cccc(CCNC(=O)CN(C)C(=O)/C=C/CN(C)C)c2)nc1N(C)C(C)C [Compound 327, (E)-3-((3-(2-(2-(4-(dimethylamino)-N-methylbut-2-enamido)acetamido)ethyl)phenyl)amino)-6-ethynyl-5-(isopropyl (methyl)amino) pyrazine-2-carboxamide]"
10 to 100 nM,< 1 nM,> 500 nM,0.201 to 0.5 nM,0.201 to 0.5 nM,"C=Cc1nc(C(N)=O)c(Nc2cccc(CCNC(=O)CN(C)C(=O)/C=C/CN(C)C)c2)nc1N(C)C(C)C [Compound 328, (E)-3-((3-(2-(2-(4-(dimethylamino)-N-methylbut-2-enamido)acetamido)ethyl)phenyl)amino)-5-(isopropyl(methyl)amino)-6-vinylpyrazine-2-carboxamide]"
